Data reported in US10456398B2, “Inhibition of SGK1 in the treatment of heart conditions” (Beth Israel Deaconess Medical Center, Inc., priority 2013, dated 2019).

Legend:
SGK1 = target: T1, SGK1 (Homo sapiens, UniProt O00141, S422D); assay: cell-based cardiomyocyte assay: SGK1-CA driven phosphorylation of GSK3β in NRVMs (immunoblot); set-up: species or system rat
T1 construct: expressed in transfected cells; host or cells: neonatal rat ventricular myocytes (NRVMs) infected with adenovirus Ad.SGK1-CA
T1 sequence (O00141 1-431 S422D): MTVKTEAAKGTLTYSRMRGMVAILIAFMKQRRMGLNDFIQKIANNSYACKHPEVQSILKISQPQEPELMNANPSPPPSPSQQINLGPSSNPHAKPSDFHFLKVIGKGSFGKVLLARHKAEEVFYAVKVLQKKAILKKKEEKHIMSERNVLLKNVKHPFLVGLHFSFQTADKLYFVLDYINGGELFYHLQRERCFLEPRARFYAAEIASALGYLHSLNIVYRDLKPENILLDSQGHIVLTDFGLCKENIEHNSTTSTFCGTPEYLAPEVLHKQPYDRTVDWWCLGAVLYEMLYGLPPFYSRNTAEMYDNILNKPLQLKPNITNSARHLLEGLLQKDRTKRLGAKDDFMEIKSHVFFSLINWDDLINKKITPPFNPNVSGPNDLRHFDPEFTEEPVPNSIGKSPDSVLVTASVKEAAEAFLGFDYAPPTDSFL
Description: (§1) These inhibitors were further characterized using a cell-based cardiomyocyte system (FIG. 3). 2×10^6 neonatal rat ventricular myocytes (NRVMs) were plated on 60 mm plates in DMEM containing 10% horse serum, 5% fetal bovine serum, 1% L-glutamine and 1% penstrep antibiotic. 24 h after plating media was changed to DMEM containing 1% L-glutamine, and 24 h following cells were infected with SGK-CA virus and treated with various concentrations of SGK inhibitors 5377051 (Compound 1A) and 6410136 (Chembridge compound catalogue #6410136). 12 h after infection and treatment, the media was changed and cells were treated again. 12 h following the second treatment NRVMs were harvested and lysed in 300 uL of cell lysis buffer (Cell Signaling) containing protease and phosphatase inhibitors and PMSF at 4 degrees C. for 1 h with shaking. Lysates were subjected to immunoblotting with an antibody against phospho […]-glycogen synthase kinase beta (p-GSK3β), a well-established SGK1 substrate. For gel electrophoresis, 50 ug of protein per well was loaded, transferred to nitrocellulose membrane, blocked, and incubated with GAPDH and P-GSK3β primary antibodies. As expected, Ad.

Akt = assay: cardiomyocyte assay: Akt (myr-Akt) mediated phosphorylation of GSK3β in NRVMs (immunoblot); type: cell-based, rat; details: NRVMs infected with Ad.myr-Akt, FIG. 8B, FIG. 3
Description: as §1, with “As expected, Ad.” left out
Because SGK1 and Akt are structurally related but have very different roles in the heart, with Akt deemed to be cardioprotective against stress, the inhibitors were assessed to determine if they have an off-target effect on Akt in CMs. […]

bkd−/− mutant zebrafish = assay: rescue of 2:1 AV block phenotype in breakdance (bkd−/−) mutant zebrafish; type: in vivo; set-up: percent rescue at peak concentration relative to morpholino: dose or concentration left out as unconfirmed
Text: The zebrafish breakdance mutant (Bkd−/−) fish is a unique model of action potential prolongation due to a mutation in the Zerg (zebrafish HERG) channel, that recapitulates human LQT2 syndrome and has been used in high throughput screens to identify molecules that may shorten the action potential duration. The phenotypic manifestation of the prolonged QT interval in the Bkd −/− fish is the presence of functional 2:1 AV block, and previous screens have taken advantage of this easily quantifiable phenotype to screen for ‘rescue’ from 2:1 AV block.
Bkd^−/− (Breakdance) adults were crossed, and the resultant embryos were reared in E3 buffer at 25° C. 24 hours post-fertilization (hpf) animals were dechorionated with pronase and plated per well in 96-well plates in a final volume of 200 μL. At 48 hpf, compounds were added to the appropriate concentration. Zebrafish were visually scored at 72 hpf for presence or absence of 2:1 AV block. For the dose response curve, the fish at 48 hpf were treated for 24 hours at the desired concentration (from 20 mM stock in DMSO) and scored for suppression of breakdance phenotype. Genetic inhibition of SGK1 was achieved either by injection of 500 μM of SGK1 morpholino or SGK1-dominant negative mRNA at the 1-2 cell stage and the fish were scored for rescue of 2:1 AV block at the 99 hpf stage.

With O=C1NC(=S)NC(=O)C1=Cc1ccccc1OCc1ccc(Cl)cc1 [Compound 1A] the “effect on Ad.SGK1-CA induced increase in p-GSK3β” value (SGK1; NRVMs infected with SGK1-CA virus, FIG. 8A, FIG. 9) was “inhibited”, the “ability to inhibit SGK1 compared with EMD 638683” value (SGK1; cellular assay, 10 micromolar compounds, FIG. 8C) was “better or at least equivalent” and the “effect on Akt-mediated phosphorylation of GSK-3β (p-GSK3β)” value (Akt) was “neither 5377051 nor 6410136 caused a significant inhibition”. For the same compound, the “percent rescue of 2:1 AV block phenotype” value (bkd−/− mutant zebrafish; bkd−/− fish, compound at 45 μM) was 58%, the toxicity (bkd−/− mutant zebrafish; bkd−/− fish, concentrations up to 50 μM) was “minimal and stable toxicity” and the “percent rescue at peak concentration relative to morpholino” value (bkd−/− mutant zebrafish; bkd−/− zebrafish, FIG. 2) was “comparable to rescue by morpholino”. For the same compound, the “toxicity in the dosages tested” value (bkd−/− mutant zebrafish; bkd−/− zebrafish, FIG. 2) was “no significant increase in toxicity”.
